# Source: US20240043427A1 (Gilead Sciences, Inc., priority 2020, published 2024)
# Columns and labels:
# CD73 [1] = molecular target: T1, CD73 (Homo sapiens (Human), UniProt P21589); assay type: biochemical; conditions: 1 mM NaH2PO4 in enzyme buffer, CD73 0.3 nM, AMP 15 uM
# CD73 [2] = molecular target: T1, CD73; assay: MDA-MB-231 Cell Based CD73 Activity Assay (DMEM); conditions: MDA-MB-231-GFP cells, DMEM medium with 10% human plasma, 200 uM AMP
# T1 sequence (P21589 27-574): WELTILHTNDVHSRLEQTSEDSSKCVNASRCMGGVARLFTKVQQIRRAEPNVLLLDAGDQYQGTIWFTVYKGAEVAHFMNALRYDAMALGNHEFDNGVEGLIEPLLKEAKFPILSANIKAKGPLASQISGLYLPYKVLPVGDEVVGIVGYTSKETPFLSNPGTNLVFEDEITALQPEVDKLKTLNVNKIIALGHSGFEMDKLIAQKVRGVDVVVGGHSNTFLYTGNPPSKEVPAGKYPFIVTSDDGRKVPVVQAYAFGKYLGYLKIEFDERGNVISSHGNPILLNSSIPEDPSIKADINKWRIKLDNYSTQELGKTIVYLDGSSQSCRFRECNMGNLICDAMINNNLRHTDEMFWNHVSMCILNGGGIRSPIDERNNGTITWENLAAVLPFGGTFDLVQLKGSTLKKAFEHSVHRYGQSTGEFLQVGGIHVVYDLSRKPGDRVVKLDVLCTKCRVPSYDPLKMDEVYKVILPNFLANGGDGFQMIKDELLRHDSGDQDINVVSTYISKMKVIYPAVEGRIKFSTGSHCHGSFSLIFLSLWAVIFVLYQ
Compound,IC50 (CD73 [1]) [nM],EC50 (CD73 [2]) [nM]
"CC1(C)CN(c2cc(-c3c[nH]c(=O)[nH]c3=O)nn3c(Cl)cnc23)CC1(F)F [Example 522, 5-(3-chloro-8-(3,3-difluoro-4,4-dimethylpyrrolidin-1-yl)imidazo[1,2-b]pyridazin-6-yl)pyrimidine-2,4(1H,3H)-dione]",1.26,23.6
"O=c1[nH]cc(-c2cc(N3CC(Oc4ccc(C(F)(F)F)cn4)C(F)(F)C3)c3nccn3n2)c(=O)[nH]1 (stereo not shown) [Example 523, 5-(8-(3,3-difluoro-4-((5-(trifluoromethyl)pyridin-2-yl)oxy)pyrrolidin-1-yl)imidazo[1,2-b]pyridazin-6-yl)pyrimidine-2,4(1H,3H)-dione]",1.92,3.96
"O=c1[nH]cc(-c2cc(N3CC(OCC(F)F)C(F)(F)C3)c3nccn3n2)c(=O)[nH]1 (stereo not shown) [Example 524, 5-(8-(4-(2,2-difluoroethoxy)-3,3-difluoropyrrolidin-1-yl)imidazo[1,2-b]pyridazin-6-yl)pyrimidine-2,4(1H,3H)-dione]",3.75,11
"CCOC(=O)OC1CN(c2cc(-c3c[nH]c(=O)[nH]c3=O)nn3ccnc23)CC1(F)F (stereo not shown) [Example 525, 1-(6-(2,4-dioxo-1,2,3,4-tetrahydropyrimidin-5-yl)imidazo[1,2-b]pyridazin-8-yl)-4,4-difluoropyrrolidin-3-yl ethyl carbonate]",1.54,4.43
"CCNC(=O)OC1CN(c2cc(-c3c[nH]c(=O)[nH]c3=O)nn3ccnc23)CC1(F)F (stereo not shown) [Example 526, 1-(6-(2,4-dioxo-1,2,3,4-tetrahydropyrimidin-5-yl)imidazo[1,2-b]pyridazin-8-yl)-4,4-difluoropyrrolidin-3-yl ethylcarbamate]",1.32,1.13
"O=c1[nH]cc(-c2cc(N3C[C@H](Oc4ccc(C(F)(F)F)cn4)C(F)(F)C3)c3nccn3n2)c(=O)[nH]1 [Example 529, (S)-5-(8-(3,3-difluoro-4-((5-(trifluoromethyl)pyridin-2-yl)oxy)pyrrolidin-1-yl)imidazo[1,2-b]pyridazin-6-yl)pyrimidine-2,4(1H,3H)-dione]",0.7,2.25
"O=c1[nH]cc(-c2cc(N3C[C@@H](Oc4ccc(C(F)(F)F)cn4)C(F)(F)C3)c3nccn3n2)c(=O)[nH]1 [Example 530, (R)-5-(8-(3,3-difluoro-4-((5-(trifluoromethyl)pyridin-2-yl)oxy)pyrrolidin-1-yl)imidazo[1,2-b]pyridazin-6-yl)pyrimidine-2,4(1H,3H)-dione]",12.4,50.8
"O=c1[nH]cc(-c2cc(N3C[C@H](Oc4ncc(C(F)(F)F)cn4)C(F)(F)C3)c3nccn3n2)c(=O)[nH]1 [Example 531, (S)-5-(8-(3,3-difluoro-4-((5-(trifluoromethyl)pyrimidin-2-yl)oxy)pyrrolidin-1-yl)imidazo[1,2-b]pyridazin-6-yl)pyrimidine-2,4(1H,3H)-dione]",1.34,11.4
"O=c1[nH]cc(-c2cc(N3C[C@@H](Oc4ncc(C(F)(F)F)cn4)C(F)(F)C3)c3nccn3n2)c(=O)[nH]1 [Example 532, (R)-5-(8-(3,3-difluoro-4-((5-(trifluoromethyl)pyrimidin-2-yl)oxy)pyrrolidin-1-yl)imidazo[1,2-b]pyridazin-6-yl)pyrimidine-2,4(1H,3H)-dione]",4.42,21.5
"CC(C)NC(=O)O[C@H]1CN(c2cc(-c3c[nH]c(=O)[nH]c3=O)nn3ccnc23)CC1(F)F [Example 533, (S)-1-(6-(2,4-dioxo-1,2,3,4-tetrahydropyrimidin-5-yl)imidazo[1,2-b]pyridazin-8-yl)-4,4-difluoropyrrolidin-3-yl isopropylcarbamate]",0.78,0.17
"CC(C)NC(=O)O[C@@H]1CN(c2cc(-c3c[nH]c(=O)[nH]c3=O)nn3ccnc23)CC1(F)F [Example 534, (R)-1-(6-(2,4-dioxo-1,2,3,4-tetrahydropyrimidin-5-yl)imidazo[1,2-b]pyridazin-8-yl)-4,4-difluoropyrrolidin-3-yl isopropylcarbamate]",9.8,5.18
"O=C(NCC(F)(F)F)OC1CN(c2cc(-c3c[nH]c(=O)[nH]c3=O)nn3ccnc23)CC1(F)F (stereo not shown) [Example 535, 1-(6-(2,4-dioxo-1,2,3,4-tetrahydropyrimidin-5-yl)imidazo[1,2-b]pyridazin-8-yl)-4,4-difluoropyrrolidin-3-yl (2,2,2-trifluoroethyl)carbamate]",1.63,0.71
"O=C(OC1CN(c2cc(-c3c[nH]c(=O)[nH]c3=O)nn3ccnc23)CC1(F)F)N1CC(F)(F)C1 (stereo not shown) [Example 536, 1-(6-(2,4-dioxo-1,2,3,4-tetrahydropyrimidin-5-yl)imidazo[1,2-b]pyridazin-8-yl)-4,4-difluoropyrrolidin-3-yl 3,3-difluoroazetidine-1-carboxylate]",3.83,5.05
"O=c1[nH]cc(-c2cc(N3C[C@H](Oc4ccccn4)C(F)(F)C3)c3nccn3n2)c(=O)[nH]1 [Example 537, (S)-5-(8-(3,3-difluoro-4-(pyridin-2-yloxy)pyrrolidin-1-yl)imidazo[1,2-b]pyridazin-6-yl)pyrimidine-2,4(1H,3H)-dione]",0.42,2.09
"O=c1[nH]cc(-c2cc(N3C[C@@H](Oc4ccccn4)C(F)(F)C3)c3nccn3n2)c(=O)[nH]1 [Example 538, (R)-5-(8-(3,3-difluoro-4-(pyridin-2-yloxy)pyrrolidin-1-yl)imidazo[1,2-b]pyridazin-6-yl)pyrimidine-2,4(1H,3H)-dione]",11.5,48.9
"O=C(OCC(F)(F)F)O[C@H]1CN(c2cc(-c3c[nH]c(=O)[nH]c3=O)nn3ccnc23)CC1(F)F [Example 541, (S)-1-(6-(2,4-dioxo-1,2,3,4-tetrahydropyrimidin-5-yl)imidazo[1,2-b]pyridazin-8-yl)-4,4-difluoropyrrolidin-3-yl (2,2,2-trifluoroethyl) carbonate]",0.55,36.3
"O=C(OCC(F)(F)F)O[C@@H]1CN(c2cc(-c3c[nH]c(=O)[nH]c3=O)nn3ccnc23)CC1(F)F [Example 543, (R)-1-(6-(2,4-dioxo-1,2,3,4-tetrahydropyrimidin-5-yl)imidazo[1,2-b]pyridazin-8-yl)-4,4-difluoropyrrolidin-3-yl (2,2,2-trifluoroethyl) carbonate]",1.43,17.4
"CC(C)(C)NC(=O)O[C@H]1CN(c2cc(-c3c[nH]c(=O)[nH]c3=O)nn3ccnc23)CC1(F)F [Example 544, (S)-1-(6-(2,4-dioxo-1,2,3,4-tetrahydropyrimidin-5-yl)imidazo[1,2-b]pyridazin-8-yl)-4,4-difluoropyrrolidin-3-yl tert-butylcarbamate]",1.01,0.13
"O=C(NCC(F)(F)F)O[C@H]1CN(c2cc(-c3c[nH]c(=O)[nH]c3=O)nn3ccnc23)CC1(F)F [Example 545, (S)-1-(6-(2,4-dioxo-1,2,3,4-tetrahydropyrimidin-5-yl)imidazo[1,2-b]pyridazin-8-yl)-4,4-difluoropyrrolidin-3-yl (2,2,2-trifluoroethyl)carbamate]",0.4,0.22
"C[C@@H](NC(=O)O[C@H]1CN(c2cc(-c3c[nH]c(=O)[nH]c3=O)nn3ccnc23)CC1(F)F)C(F)(F)F [Example 546, (S)-1-(6-(2,4-dioxo-1,2,3,4-tetrahydropyrimidin-5-yl)imidazo[1,2-b]pyridazin-8-yl)-4,4-difluoropyrrolidin-3-yl ((R)-1,1,1-trifluoropropan-2-yl)carbamate]",1.23,0.69
"C[C@H](NC(=O)O[C@H]1CN(c2cc(-c3c[nH]c(=O)[nH]c3=O)nn3ccnc23)CC1(F)F)C(F)(F)F [Example 547, (S)-1-(6-(2,4-dioxo-1,2,3,4-tetrahydropyrimidin-5-yl)imidazo[1,2-b]pyridazin-8-yl)-4,4-difluoropyrrolidin-3-yl ((S)-1,1,1-trifluoropropan-2-yl)carbamate]",0.31,0.13
"COC[C@@H](C)NC(=O)O[C@H]1CN(c2cc(-c3c[nH]c(=O)[nH]c3=O)nn3ccnc23)CC1(F)F [Example 548, (S)-1-(6-(2,4-dioxo-1,2,3,4-tetrahydropyrimidin-5-yl)imidazo[1,2-b]pyridazin-8-yl)-4,4-difluoropyrrolidin-3-yl ((R)-1-methoxypropan-2-yl)carbamate]",0.63,0.13
"COC[C@H](C)NC(=O)O[C@H]1CN(c2cc(-c3c[nH]c(=O)[nH]c3=O)nn3ccnc23)CC1(F)F [Example 549, (S)-1-(6-(2,4-dioxo-1,2,3,4-tetrahydropyrimidin-5-yl)imidazo[1,2-b]pyridazin-8-yl)-4,4-difluoropyrrolidin-3-yl ((S)-1-methoxypropan-2-yl)carbamate]",0.99,0.28
"CC(NC(=O)O[C@H]1CN(c2cc(-c3c[nH]c(=O)[nH]c3=O)nn3ccnc23)CC1(F)F)C(F)F (stereo partly drawn) [Example 550, (S)-1-(6-(2,4-dioxo-1,2,3,4-tetrahydropyrimidin-5-yl)imidazo[1,2-b]pyridazin-8-yl)-4,4-difluoropyrrolidin-3-yl (1,1-difluoropropan-2-yl)carbamate]",1.67,0.83
"O=C(NC12CC(C1)C2)O[C@H]1CN(c2cc(-c3c[nH]c(=O)[nH]c3=O)nn3ccnc23)CC1(F)F [Example 551, (S)-1-(6-(2,4-dioxo-1,2,3,4-tetrahydropyrimidin-5-yl)imidazo[1,2-b]pyridazin-8-yl)-4,4-difluoropyrrolidin-3-yl bicyclo[1.1.1]pentan-1-ylcarbamate]",0.24,0.13
"N#Cc1cc([C@H]2C[C@@H]2c2cc(-c3c[nH]c(=O)[nH]c3=O)nn3ccnc23)ccc1Cl [Example 553, 2-chloro-5-((1S,2S)-2-(6-(2,4-dioxo-1,2,3,4-tetrahydropyrimidin-5-yl)imidazo[1,2-b]pyridazin-8-yl)cyclopropyl)benzonitrile]",1.39,6.89
